# In PubChem BioAssay AID2060884 (Molecular Pharmacology Branch, DTP, NCI, 2025):
# Tested on: NCI-H929 complex spheroids, viability % test/control
# Experiment: Anticancer human tumor NCI-H929 cell line growth inhibition [RAS];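 also: compound exposure lasted seven days before viability was read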;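 as to viability, T/C: 100% = DMSO vehicle control viability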
# Conditions: for IC50: curve of first compound; for viability, T/C: stronger effect = lower value
# Outline: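 Multi-cell-type spheroids: tumor cells plus HUVEC endothelial cells and mesenchymal stem cells. RAS-pathway inhibitors were combined with targeted agents, each dosed in half-log steps down from clinical Cmax, or from 10 microM when Cmax was unknown.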
smiles,measurement,setting,value
CCc1c2c(nc3ccc(O)cc13)-c1cc3c(c(=O)n1C2)COC(=O)[C@]3(O)CC + CCn1c(-c2cc(N3CCN(C)CC3)cnc2C(C)OC)c2c3cc(ccc31)-c1csc(n1)CC(NC(=O)C1CC1C)C(=O)N1CCCC(N1)C(=O)OCC(C)(C)C2,IC50,second compound 0.000949 µM,1.88 nM
same,IC50,second compound 0.003 µM,2.18 nM
same,IC50,second compound 0.00949 µM,2 nM
same,IC50,second compound 0.03 µM,< 0.949 nM
same,IC50,second compound 0.0949 µM,< 0.949 nM
same,IC50,second compound 0.3 µM,< 0.949 nM
same,"viability, T/C","second compound 0.000949 µM, first compound 0.000949 µM",108%
same,"viability, T/C","second compound 0.000949 µM, first compound 0.003 µM",10.3%
same,"viability, T/C","second compound 0.000949 µM, first compound 0.00949 µM",1.4%
same,"viability, T/C","second compound 0.000949 µM, first compound 0.03 µM",2.14%
same,"viability, T/C","second compound 0.000949 µM, first compound 0.0949 µM",0.7%
same,"viability, T/C","second compound 0.000949 µM, first compound 0.3 µM",0.99%
same,"viability, T/C","second compound 0.003 µM, first compound 0.000949 µM",103%
same,"viability, T/C","second compound 0.003 µM, first compound 0.003 µM",29.6%
same,"viability, T/C","second compound 0.003 µM, first compound 0.00949 µM",1.69%
same,"viability, T/C","second compound 0.003 µM, first compound 0.03 µM",1.32%
same,"viability, T/C","second compound 0.003 µM, first compound 0.0949 µM",1.58%
same,"viability, T/C","second compound 0.003 µM, first compound 0.3 µM",1.28%
same,"viability, T/C","second compound 0.00949 µM, first compound 0.000949 µM",114%
same,"viability, T/C","second compound 0.00949 µM, first compound 0.003 µM",15.1%
same,"viability, T/C","second compound 0.00949 µM, first compound 0.00949 µM",1.72%
same,"viability, T/C","second compound 0.00949 µM, first compound 0.03 µM",1.61%
same,"viability, T/C","second compound 0.00949 µM, first compound 0.0949 µM",1.9%
same,"viability, T/C","second compound 0.00949 µM, first compound 0.3 µM",0.54%
same,"viability, T/C","second compound 0.03 µM, first compound 0.000949 µM",19.6%
same,"viability, T/C","second compound 0.03 µM, first compound 0.003 µM",2.7%
same,"viability, T/C","second compound 0.03 µM, first compound 0.00949 µM",1.2%
same,"viability, T/C","second compound 0.03 µM, first compound 0.03 µM",1.06%
same,"viability, T/C","second compound 0.03 µM, first compound 0.0949 µM",1.1%
same,"viability, T/C","second compound 0.03 µM, first compound 0.3 µM",0.6%
same,"viability, T/C","second compound 0.0949 µM, first compound 0.000949 µM",4.5%
same,"viability, T/C","second compound 0.0949 µM, first compound 0.003 µM",1.29%
same,"viability, T/C","second compound 0.0949 µM, first compound 0.00949 µM",1.45%
same,"viability, T/C","second compound 0.0949 µM, first compound 0.03 µM",0.94%
same,"viability, T/C","second compound 0.0949 µM, first compound 0.0949 µM",1.04%
same,"viability, T/C","second compound 0.0949 µM, first compound 0.3 µM",0.39%
same,"viability, T/C","second compound 0.3 µM, first compound 0.000949 µM",2.56%
same,"viability, T/C","second compound 0.3 µM, first compound 0.003 µM",1.55%
same,"viability, T/C","second compound 0.3 µM, first compound 0.00949 µM",0.57%
same,"viability, T/C","second compound 0.3 µM, first compound 0.03 µM",0.84%
same,"viability, T/C","second compound 0.3 µM, first compound 0.0949 µM",1.38%
same,"viability, T/C","second compound 0.3 µM, first compound 0.3 µM",0.4%
